Data: patent US20240407993A1, “PEPTIDE HAVING ANTI-AGING ACTIVITY, AND USE THEREOF” (CAREGEN CO., LTD., priority 2021, published 2024)

Tests used:
[1] = system: Elastin; assay: Elastin gene expression by RT-PCR in fibroblasts; assay type: cell-based, mouse; details: NIH3T3 cells, peptide 1, 10, 50 μM, 24 hours; FIGS. 1A, 1D
Description: First, NIH3T3 cells (mouse fibroblast cell line) were seeded in a 6-well plate at a cell density of 3×10^5 cell/well, and then the cells were cultured in DMEM medium containing 10% fetal bovine serum (FBS) for 24 hours. The cultured cells were washed once with serum free DMEM medium, and the peptide of the present invention was mixed in 1 mL of the serum free DMEM medium at each of concentrations of 1, 10, and 50 μM, and dispensed into the cells. A positive control (PC) was treated with 5 ng/ml of TGF-β1 instead of the above peptide. The cells were cultured in a CO2 incubator at 37° C. for 24 hours.
The cultured cells were washed twice with PBS, and RNA was extracted from the cells using easy blue (iNtRON, Cat. No.: 17061, Korea). The amount of RNA extracted was quantified, 1,000 ng of RNA was added per tube, and RT reaction was performed using a kit (enzynomics, Cat. No.: PT200, Korea). RT-PCR was performed using a PCR kit (enzynomics, Cat. No.: […], Korea). The sequences of the primers of collagen, fibronectin, and elastin used in RT-PCR and the sequence of the primer of GAPDH used to compare the total RNA amount of each treatment group are shown in [Table 2].

[2] = system: hyaluronic acid; assay: Hyaluronic acid secretion (HA ELISA) in keratinocytes; assay type: cell-based, human; details: HaCaT cells, peptide 1, 10, 50 μM, 24 hours; FIG. 2
Description: First, HaCaT cells (human keratinocyte cell line) were seeded in a 48-well plate at a cell density of 1×10^5 cell/well, and then the cells were cultured in DMEM medium containing 10% fetal bovine serum (FBS) for 24 hours. The cultured cells were washed once with serum free DMEM medium, and the peptide of the present invention was mixed in 2 mL of the serum free DMEM medium at each of concentrations of 1, 10, and 50 μM, and dispensed into three wells by 500 μL per condition. A positive control (PC) was treated with 100 nM of EGF instead of the above peptide. The cells were cultured in a CO2 incubator at 37° C. for 24 hours.
The medium of the cultured HaCaT cells was centrifuged to settle a suspended matter, and a supernatant was transferred to an e-tube and used to perform HA ELISA (ECHELON biosciences, Cat No.: K-1200, USA).

[3] = system: Fibronectin; assay: Fibronectin mRNA level decreased by UV irradiation, RT-PCR in fibroblasts; assay type: cell-based, mouse; details: NIH3T3 cells, 8 J/cm^2 UVA, peptide 1, 10, 50 μM, 6 hours after irradiation; FIGS. 5A, 5C
Description: The expression of genes related to extracellular matrix components is inhibited when irradiated with UV.
(§1) First, NIH3T3 cells were seeded in a 6-well plate at a cell density of 5×10^5 cell/well, and then the cells were cultured in DMEM medium containing 10% fetal bovine serum (FBS) for 24 hours. The cultured cells were washed once with serum free DMEM medium, and then the peptide of the present invention was mixed in 1 mL of the serum free DMEM medium at each of concentrations of 1, 10, and 50 μM, and dispensed into the cells. A positive control (PC) was treated with 50 μM of Quercetin instead of the above peptide. The cells were cultured in a CO2 incubator at 37° C. for 1 hour.
The medium of the cultured cells was transferred to a tube (e-tube), 1 ml of PBS was added, and irradiation was performed with 8 J/cm^2 of UVA using a UV irradiator (VILBER LOURMAT, Cat No.: 3102-BSU, France). After removing PBS, 900 μL of the medium transferred to the tube was dispensed, and culture was performed in a CO2 incubator at 37° C. for 6 hours. The cultured cells were washed twice with PBS, and then RNA was extracted from the cells using easy blue (iNtRON, Cat. No.: 17061, Korea). The amount of RNA extracted was quantified, 1,000 ng of RNA was added per tube, and RT reaction was performed using a kit (enzynomics, Cat. No.: RT200, Korea). […]

[4] = system: AQP3; assay: AQP3 mRNA level decreased by UV irradiation, RT-PCR in keratinocytes; assay type: cell-based, human; details: HaCaT cells, 20 mJ/cm^2 UVB, peptide 1, 10, 50 μM, 4 hours after irradiation; FIGS. 7A, 7C
Description: The expression of genes related to aging is inhibited when irradiated with UV.
as §1, with “First, HaCaT” for “First, NIH3T3”, “with 2.5 mM” for “with 50 μM”, “of N-Acetylcysteine (NaC)” for “of Quercetin”, “peptide.” for “peptide. The cells were cultured in a CO2 incubator at 37° C. for 1 hour.”
The cells were cultured in a CO2 incubator at 37° C. for 1 hour. The medium of the cultured cells was transferred to a tube (e-tube), 1 ml of PBS was added, and irradiation was performed with 20 mJ/cm^2 of UVB using a UV irradiator (VILBER LOURMAT, Cat No.: 3102-BSU, France). After removing PBS, 900 μL of the medium transferred to the tube was added, and culture was performed in a CO2 incubator at 37° C. for 4 hours. The cultured cells were washed twice with PBS, and then RNA was extracted from the cells using easy blue (iNtRON, Cat. No.: 17061, Korea). The extracted RNA was subjected to RT reaction using a kit (enzynomics, Cat. No.: RT200, Korea). Thereafter, RT-PCR was performed using a PCR kit (enzynomics, Cat. No.: R581T, Korea). […]

## LCACCLHNCNECQ
[1]
  expression of the elastin gene: gradually increased as a concentration of the peptide increased
[2]
  secretion of hyaluronic acid protein: gradually increased as the concentration of the peptide increased
[3]
  mRNA level of fibronectin decreased by UV irradiation: increased again
[4]
  mRNA level of AQP3 decreased by UV irradiation: increased again
